Source: patent publication US20240381868A1, “AGED AQUEOUS ANTIMICROBIAL COMPOSITION” (EVONIK CORPORATION, priority 2021, published 2024)

Columns and labels:
[1] = Formation and stability of other peracids at room temperature (titration); assay type: physicochemical
Description: (§1) The concentrations of formed peracids and hydrogen peroxide were monitored by titration on an auto-titrator and by using Chemetrics test kits K7913F and K-5543.
Various other peracids were also prepared using corresponding organic acid precursors and hydrogen peroxide as described in the Example 1. Only the acids with low or no odor were used in the experiment. The solutions were kept at room temperature and periodically tested for the concentration of the components using an auto-titrator and standard titration methods.

[2] = Formation and stability of peroxycitric acid solutions at room temperature (titration); assay type: physicochemical; conditions: H2SO4 catalyst
Description: as §1
Two solutions were prepared using solid citric acid (47.9 wt %), 70 wt % hydrogen peroxide (21.8 wt %) and the rest DI water. 0.6 wt % Dequest 2010 stabilizer was added to both solutions. To the first solution (PCA-1), 4.9 wt % concentrated sulfuric acid was added as a catalyst. To the second solution (PCA-2), 0.6 wt % of sulfuric acid was added. Both solutions were kept at room temperature and periodically tested for the concentration of the components using an auto-titrator and standard titration methods.

Row | Compound | Peracid Concentration ([1]; 1 day) [mol/kg] | Peracid Concentration ([1]; 3 days) [mol/kg] | Peracid Concentration ([1]; 7 days) [mol/kg] | Peracid Concentration ([1]; 14 days) [mol/kg] | Peracid Concentration ([1]; 22 days) [mol/kg] | max peracid concentration formed [1] [wt %] | time for which peracid was stable [1] | Peracid Concentration ([1]; 78 days) [mol/kg] | concentration of peracid formed [1] [wt %] | time to reach maximum concentration of PCA [2] [days]
1 | O=C(O)CCCC(=O)OO [Peroxyglutaric, perglutaric acid] | 0.993 | 1.189 | 1.081 | 0.986 | 0.919 |  |  |  |  | 
2 | O=C(O)/C=C\C(=O)OO [Peroxymaleic, Permaleic acid] | 0.235 |  | 0.386 | 0.379 | 0.348 | 5.1 | at least 78 days | 0.318 |  | 
3 | O=C(O)CC(=O)OO [Peroxymalonic, permalonic acid] |  | 0.442 | 0.200 | 0.083 |  |  |  |  |  | 
4 | O=C(O)C(=O)OO [Peroxyoxalic, peroxalic acid] |  | 0.047 | 0.066 | 0.057 |  |  |  |  | < 1.0 | 
5 | Percitric acid [PCA] |  |  |  |  |  |  |  |  |  | 3 to 7
